US20040024024A1, “Aromatic sulfone hydroxamates and their use as protease inhibitors” (priority 2001, published 2004)
pKi: −log10 of the molar value.

Columns and labels:
Assay in all cases: In vitro MMP inhibition, Ki determination (fluorogenic substrate II)
Type in all cases: biochemical
[1] = molecular target: T1, Human recombinant MMP-14 (Homo sapiens, UniProt P50281)
T1 construct: The catalytic domain enzyme was expressed in E. coli inclusion bodies, solubilized in urea; made in house
Method: (§1) Several hydroxamates and salts thereof were analyzed in in vitro assays to determine their ability to inhibit the MMP cleavage of peptide substrates. Inhibition (Ki) and IC50 constants were calculated from the assayed hydroxamate-MMP interactions.
(§2) Human recombinant MMP-1, MMP-2, MMP-9, MMP-13, and MMP-14 were used in this assay. All enzymes were prepared in Assignee's laboratories following usual laboratory procedures. Protocols for the preparation and use of these enzymes are available in the scientific literature. See, e.g., Enzyme Nomenclature (Academic Press, San Diego, Calif., 1992) (and the citations therein). See also, Frije et al., J. Biol. Chem., 26(24), 16766-73 (1994).
The MMP-14 full length cDNA was provided by Dr. Gregory Goldberg of Washington University (St. Louis, Mo.). The catalytic domain enzyme was expressed in E. coli inclusion bodies, solubilized in urea, purified on a preparative […] reverse phase HPLC column, and then refolded in the presence of zinc acetate and purified for use.
(§3) All MMPs were activated using 4-aminophenylmercuric acetate (“APMA”, Sigma Chemical, St. Louis, Mo.) or trypsin. MMP-9 also was activated using human recombinant MMP-3 (purified in Assignee's laboratory following standard cloning and purification techniques).
(§4) Two fluorogenic, methoxycoumarin-containing polypeptide substrates were used in the MMP inhibition assays:
(§5) MCA-ArgProLeuGlyLeuDpaAlaArgGluArgNH2 (II)
(§6) Here, “Dpa” is 3-(2,4-dinitrophenyl)-L-2,3-diaminopropionyl group, and “MCA” is 7-methoxycoumarin-4-yl acetyl. Substrate (I) was purchased from Baychem (Redwood City, Calif.), and substrate II was prepared Assignee's laboratory. Substrate I was used in the IC50 determination assays, while substrate II was used in the Ki determination assays. In the absence of MMP inhibitory activity, either substrate is cleaved at the Gly-Leu peptide bond. This cleavage separates the highly fluorogenic peptide from the 2,4-dinitrophenyl quencher, thus resulting in increase of fluorescent intensity.
(§7) The stock solutions of the assayed hydroxamates (or salts thereof) were prepared in 1% dimethyl sulfoxide (DMSO). These stock solutions were diluted in Buffer A (100 mM Tris-HCl, 100 mM NaCl, 10 mM CaCl2, 0.05% polyoxyethylene 23 lauryl ether, pH 7.5) to obtain solutions with different hydroxamate concentrations, i.e., assay solutions with different concentrations of the assayed MMP inhibitory compound. The experiment controls contained the same amount of Buffer A/DMSO as the assayed sample, but contained no hydroxamate (or salt thereof).
(§8) The assays from which the Ki determinations were made were performed as follows. The assayed hydroxamate samples were incubated in separate wells of untreated white polystyrene plates (Nunc Nalgene International, Rochester, N.Y.), and analyzed on a Tecan SpectraFlour Plus plate reader. The excitation wavelength was 330 nm, and the emission wavelength—420 nm. All samples (assayed hydroxamates and controls) were incubated in separate plate wells at room temperature for 1 hr in the presence of 4 μM of MMP substrate (II). In the absence of MMP inhibitory activity, substrate II was cleaved at the Gly-Leu bond resulting in an increase of relative fluorescence. Inhibition was observed as a reduced rate of this increase in relative fluorescence. The various hydroxamates were analyzed using a single low enzyme concentration with a single substrate concentration fixed at or below the Km. This protocol is a modification of method by Knight et al., FEBS Lett., 296(3), 263-266 (1992). Apparent inhibitory constants were determined by non-linear regression of reaction velocity as a function of inhibitor and enzyme concentration using Morrison's equation, as described by Kuzmic, Anal. Biochem. 286, 45-50 (2000). Modifications were made in the non-linear regression method to allow a common control reaction rate and effective enzyme concentration to be shared between all dose-response relationships on a given assay plate. […]

[2] = molecular target: T2, Human recombinant MMP-13 (Homo sapiens, UniProt P45452)
T2 construct: made in house; host or cells: baculovirus / insect cells
Method: as §1, §2
The expressed proenzyme was first purified over a heparin agarose column, and then over a chelating zinc chloride column. The proenzyme was then activated by APMA for use in the assay. Further details on baculovirus expression systems may be found in, for example, Luckow et al., J. Virol., 67, 4566-79 (1993). See also, O'Reilly et al, Baculovirus Expression Vectors: A Laboratory Manual (W. H. Freeman and Co., New York, N.Y., 1992). See also, King et al., The Baculovirus Expression System: A Laboratory Guide (Chapman & Hall, London, England, 1992).
as §3, §4, §5, §6, §7
as §8, with “(2000).” for “(2000). Modifications were made in the non-linear regression method to allow a common control reaction rate and effective enzyme concentration to be shared between all dose-response relationships on a given assay plate.”

[3] = molecular target: T3, Human recombinant MMP-1 (Homo sapiens, UniProt P03956)
T3 construct: made in house; host or cells: MMP-1-transfected HT-1080 cells (spent media)
T3 sequence (P03956 100-469): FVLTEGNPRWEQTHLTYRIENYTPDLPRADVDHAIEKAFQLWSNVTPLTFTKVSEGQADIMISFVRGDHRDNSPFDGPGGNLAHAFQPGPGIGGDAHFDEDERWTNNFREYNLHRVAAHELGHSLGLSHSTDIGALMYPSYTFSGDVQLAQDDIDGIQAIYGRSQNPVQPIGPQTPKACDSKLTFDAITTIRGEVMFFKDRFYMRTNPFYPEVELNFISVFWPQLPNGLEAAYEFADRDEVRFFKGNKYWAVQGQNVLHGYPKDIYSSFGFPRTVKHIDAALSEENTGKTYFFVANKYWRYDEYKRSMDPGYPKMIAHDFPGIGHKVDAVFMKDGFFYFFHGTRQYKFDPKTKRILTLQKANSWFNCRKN
Method: as §1, §2
The MMP-1 proenzyme was purified from the spent media of MMP-1-transfected HT-1080 cells provided by Dr. Harold Welgus of Washington University (St. Louis, Mo.). The protein was purified on a zinc chelating column.
as §3, §4, §5, §6, §7, §8

[4] = substrate (II) 4 μM, 1 hr room temperature, apparent Ki, values in parenthesis

Row | SMILES | pKi [1, 4] | pKi [2, 4] | pKi [3, 4] | pKi ([1]; value in parenthesis) | pKi ([2]; value in parenthesis) | pKi ([3]; value in parenthesis)
1 | O=C(NO)C1(S(=O)(=O)c2ccc(OCCCn3nnc(-c4ccc(OC(F)(F)F)cc4)n3)cc2)CCN(CC2CC2)CC1 [Example 53] | < 5.00 | 9.18 | < 5.00 |  |  | 
2 | O=C(NO)C1(S(=O)(=O)c2ccc(OCCCc3cccc(-c4ccco4)c3)cc2)CCOCC1 [Example 97] |  |  |  | < 5.00 | 8.25 | 5.13
3 | O=C(NO)C1(S(=O)(=O)c2ccc(OCCCc3cccc(Cc4ccccc4)c3)cc2)CCOCC1 [Example 98] |  |  |  | < 5.00 | 8.04 | < 5.00
4 | O=C(NO)C1(S(=O)(=O)c2ccc(OCCc3cccc(-c4ccncc4)c3)cc2)CCOCC1 [Example 113] |  |  |  | 5.46 | 9.51 | < 5.00
5 | O=C(NO)C1(S(=O)(=O)c2ccc(OCCc3cccc(-c4ccccc4F)c3)cc2)CCOCC1 [Example 115] |  |  |  | < 5.00 | 8.65 | < 5.00
6 | O=C(NO)C1(S(=O)(=O)c2ccc(OCCc3cccc(-c4ccc(F)cc4)c3)cc2)CCOCC1 [Example 123] |  |  |  | < 5.00 | 8.13 | < 5.00
7 | O=C(NO)C1(S(=O)(=O)c2ccc(OCCc3cccc(-c4cccnc4)c3)cc2)CCOCC1 [Example 125] |  |  |  | 5.78 | 9.77 | 5.45
8 | Cc1ccc(-c2cccc(CCOc3ccc(S(=O)(=O)C4(C(=O)NO)CCOCC4)cc3)c2)cc1 [Example 127] |  |  |  | < 5.00 | 7.79 | < 5.00
9 | O=C(NO)C1(S(=O)(=O)c2ccc(OCCCc3cccc(-c4ccc(F)cc4)c3)cc2)CCN(C2CC2)CC1 [Example 139] |  |  |  | < 5.00 | 8.54 | < 5.00
10 | COCCN1CCC(C(=O)NO)(S(=O)(=O)c2ccc(OCCCc3cccc(-c4ccc(F)cc4)c3)cc2)CC1 [Example 140] |  |  |  | < 5.00 | 9.05 | < 5.00
11 | O=C1Nc2ccc(-c3noc(CCCOc4ccc(S(=O)(=O)C5(C(=O)NO)CCN(C6CC6)CC5)cc4)n3)cc21 [Example 142] |  |  |  | < 5.00 | 8.87 | < 5.00
12 | O=C(NO)C1(S(=O)(=O)c2ccc(OCCCc3cccc(-c4ccc(OC(F)(F)F)cc4)c3)cc2)CCOCC1 [Example 147] |  |  |  | < 5.00 | 7.62 | < 5.00
13 | O=C(NO)C1(S(=O)(=O)c2ccc(OCCCc3cccc(-c4ccccn4)c3)cc2)CCOCC1 [Example 148] |  |  |  | 5.29 | 8.76 | 5.06
14 | O=C(NO)C1(S(=O)(=O)c2ccc(OCCCc3cccc(-c4ccncc4)c3)cc2)CCOCC1 [Example 149] |  |  |  | 5.60 | 8.93 | < 5.00
15 | O=C(NO)C1(S(=O)(=O)c2ccc(OCCCc3cccc(-c4cccnc4)c3)cc2)CCOCC1 [Example 150] |  |  |  | 5.26 | 9.23 | < 5.00
16 | COCCN1CCC(C(=O)NO)(S(=O)(=O)c2ccc(OCCCc3nc(-c4ccccc4OC(F)(F)F)no3)cc2)CC1 [Example 152] |  |  |  | < 5.00 | 8.58 | < 5.00
17 | O=C(NO)C1(S(=O)(=O)c2ccc(OCCCc3cccc(Br)c3)cc2)CCOCC1 [Example 154] |  |  |  | 5.41 | 9.02 | < 5.00
18 | CCc1ccccc1-c1noc(CCCOc2ccc(S(=O)(=O)C3(C(=O)NO)CCN(CCOC)CC3)cc2)n1 [Example 155] |  |  |  | 5.03 | 8.80 | < 5.00
19 | O=C(NO)C1(S(=O)(=O)c2ccc(OCCOc3cccc(-c4ccccc4)c3)cc2)CCOCC1 [Example 157] |  |  |  | < 5.00 | 8.40 | < 5.00
20 | O=C(NO)C1(S(=O)(=O)c2ccc(OCCCc3cccc(-c4ccccc4Cl)c3)cc2)CCOCC1 [Example 162] |  |  |  | < 5.00 | 7.92 | < 5.00
21 | O=C(NO)C1(S(=O)(=O)c2ccc(OCCCc3cccc(-c4ccccc4F)c3)cc2)CCOCC1 [Example 163] |  |  |  | < 5.00 | 7.94 | < 5.00
22 | Cc1ccccc1-c1cccc(CCCOc2ccc(S(=O)(=O)C3(C(=O)NO)CCOCC3)cc2)c1 [Example 164] |  |  |  | < 5.00 | 8.16 | < 5.00
23 | Cc1ccc(-c2cccc(CCCOc3ccc(S(=O)(=O)C4(C(=O)NO)CCOCC4)cc3)c2)cc1C [Example 165] |  |  |  | < 5.00 | 6.84 | < 5.00
24 | COCCN1CCC(C(=O)NO)(S(=O)(=O)c2ccc(OCCCc3nc(-c4ccc(CC(C)C)cc4)no3)cc2)CC1 [Example 175] |  |  |  | < 5.00 | 8.70 | < 5.00
25 | COCCN1CCC(C(=O)NO)(S(=O)(=O)c2ccc(OCCCc3nnc(-c4ccccc4C(F)(F)F)o3)cc2)CC1 [Example 178] |  |  |  | < 5.00 | 8.77 | < 5.00
26 | O=C(CCCOc1ccc(S(=O)(=O)C2(C(=O)NO)CCOCC2)cc1)Nc1cccc(OC(F)(F)F)c1 [Example 181] |  |  |  | 5.32 | 9.57 | 5.73
27 | CC(C)c1cccc(NC(=O)CCCOc2ccc(S(=O)(=O)C3(C(=O)NO)CCOCC3)cc2)c1 [Example 182] |  |  |  | 5.23 | 9.67 | 5.18
28 | COCCN1CCC(C(=O)NO)(S(=O)(=O)c2ccc(OCCCc3nc(-c4ccc(OC(F)(F)F)cc4)no3)cc2)CC1 [Example 190] |  |  |  | < 5.00 | 9.22 | < 5.00
